“And” between values parts separate entries of the source, which are not always exact repeats. Equal entries are not always repeated.
Tests used:
OVCAR cells = test: Cell viability of ovarian cancer cell line measured by MTS (poisonous dose test and chemotherapeutic synergism); format: cell-based
Procedure: (1) Poisonous dose test (the chemotherapy drug dose for inhibiting the cell growth and leaving 60˜70% of growth capability is selected for subsequent test). (2) The cells are inoculated in 96-well plate and cultured for 24 hours. (3) Test drugs at different concentrations are added in, the test concentrations of the r-APS are 0, 2 and 4 mg/ml, the test concentrations of the astragalus pharmaceutical composition comprising the r-APS and the mannose (r-APS+mannose) are 0, 5 and 10 mg/ml. (4) The dose with a poisoning effect on 35-40% of individual cells is selected as chemotherapy drug dose. (5) The cell viability is tested in 48 and 72 hours respectively after addition. (6) Experiment on chemotherapeutic synergism of the r-APS and the astragalus pharmaceutical composition comprising the r-APS and the mannose (r-APS+mannose). (7) The cells are inoculated in 96-well plate and cultured for 24 hours. (8) The r-APS or the astragalus pharmaceutical composition comprising the r-APS and the mannose (r-APS+mannose) in combination with chemotherapy drug are cultured for 48 hours, the dose of the r-APS and the astragalus pharmaceutical composition comprising the r-APS and the mannose (r-APS+mannose) is three poisonous doses for test, the cell viability is measured by MTS in 48 hours.

HCT116 cells = test: Cell viability of colorectal cancer cells measured by MTS (poisonous dose test and chemotherapeutic synergism); format: cell-based
Procedure: (1) First of all, poisonous dose test (the chemotherapy drug dose for inhibiting the cell growth and leaving 60˜70% of growth capability is selected for subsequent test) (2) The cells are inoculated in 96-well plate and cultured for 24 hours. (3) Test drugs at different concentrations are added in, the test concentrations of the r-APS are 0, 2 and 4 mg/ml, the test concentrations of the astragalus pharmaceutical composition comprising the r-APS and the mannose (r-APS+mannose) are 0, 5 and 10 mg/ml. (4) The dose with a poisoning effect on 35˜40% of individual cells is selected as chemotherapy drug dose. (5) The cell viability is tested in 48 and 72 hours respectively after addition. (6) Experiment on chemotherapeutic synergism of the r-APS and the astragalus pharmaceutical composition comprising the r-APS and the mannose (r-APS+mannose): (7) The cells are inoculated in 96-well plate and cultured for 24 hours. (8) The r-APS or the astragalus pharmaceutical composition comprising the r-APS and the mannose (r-APS+mannose) in combination with chemotherapy drug are cultured for 48 hours, the doses of the r-APS and the astragalus pharmaceutical composition comprising the r-APS and the mannose (r-APS+mannose) are selected four poisonous doses for test, and then the cell viability is measured by MTS in 48 hours.

[1] = Olaparib 0.2M, poisonous dose test
[2] = Olaparib 0.4M, poisonous dose test
[3] = Olaparib 0.6M, poisonous dose test
[4] = Olaparib 0.8M, poisonous dose test
[5] = Olaparib 1M, poisonous dose test
[6] = Olaparib alone (0 mg/ml test drug), 48 hours
[7] = Regorafenib 0.01 mM alone (0 mg/ml test drug), HCT116, 48 hours
[8] = Regorafenib 0.01 mM, HCT116, poisonous dose test

O=C(c1cc(Cc2n[nH]c(=O)c3ccccc23)ccc1F)N1CCN(C(=O)C2CC2)CC1 [Olaparib]
Cell viability (%) (OVCAR cells; [1]): 100.55%
Mean value (MEAN) of three repeats (raw reading) (OVCAR cells; [1]): 0.984
Cell viability (%) (OVCAR cells; [2]): 90.32%
Mean value (MEAN) of three repeats (raw reading) (OVCAR cells; [2]): 0.884
Cell viability (%) (OVCAR cells; [3]): 75.13%
Mean value (MEAN) of three repeats (raw reading) (OVCAR cells; [3]): 0.735
cell viability of cancer cells poisoned to (OVCAR cells; Olaparib 0.7M, poisonous dose test): 60%
Cell viability (%) (OVCAR cells; [4]): 48.72%
Mean value (MEAN) of three repeats (raw reading) (OVCAR cells; [4]): 0.477
Cell viability (%) (OVCAR cells; [5]): 18.74%
Mean value (MEAN) of three repeats (raw reading) (OVCAR cells; [5]): 0.183
Cell viability (%) (OVCAR cells; [6]): 60.189% and 61.4%
Mean value (MEAN) of three repeats (raw reading) (OVCAR cells; [6]): 0.595 and 0.605

CNC(=O)c1cc(Oc2ccc(NC(=O)Nc3ccc(Cl)c(C(F)(F)F)c3)c(F)c2)ccn1 [Regorafenib]
viability at 0.01 µM (HCT116 cells; Homo sapiens, HCT-116, Regorafenib 0.00001 mM, HCT116, poisonous dose test): 110%
viability at 0.1 µM (HCT116 cells; Homo sapiens, HCT-116, Regorafenib 0.0001 mM, HCT116, poisonous dose test): 107%
viability at 1 µM (HCT116 cells; Homo sapiens, HCT-116, Regorafenib 0.001 mM, HCT116, poisonous dose test): 94.4%
viability at 10 µM (HCT116 cells; Homo sapiens, HCT-116, Regorafenib 0.01 mM, HCT116, poisonous dose test): 60%
viability at 100 µM (HCT116 cells; Homo sapiens, HCT-116, Regorafenib 0.1 mM, HCT116, poisonous dose test): 9.2%
Mean value (MEAN) of three repeats (raw reading) (HCT116 cells; Regorafenib 0.00001 mM, HCT116, poisonous dose test): 1.103
Mean value (MEAN) of three repeats (raw reading) (HCT116 cells; Regorafenib 0.0001 mM, HCT116, poisonous dose test): 1.075
Mean value (MEAN) of three repeats (raw reading) (HCT116 cells; Regorafenib 0.001 mM, HCT116, poisonous dose test): 0.950
Cell viability (%) (HCT116 cells; [7]): 71.4% and 71.43%
Mean value (MEAN) of three repeats (raw reading) (HCT116 cells; [7]): 0.641
Cell viability (%) (HCT116 cells; [8]): 63.5%
Mean value (MEAN) of three repeats (raw reading) (HCT116 cells; [8]): 0.639
Mean value (MEAN) of three repeats (raw reading) (HCT116 cells; Regorafenib 0.1 mM, HCT116, poisonous dose test): 0.093
